# Key:
# PHGDH = PHGDH in CD33-positive cells, MOLM13 systemic xenograft model, flow cytometry; assay type: in vivo, mice; settings: 50 mg/kg for 4 days
# Experimental: (§1) Material from an in vivo MOLM13 systemic model was also evaluated by flow cytometry. Expression of the previously evaluated biomarkers was examined in cells isolated from bone marrows and spleens of animals with systemic AML disease (MOLM13, inoculated for 7 days prior to treatment) treated with BGB324 at 50 mg/kg for 4 days. The spleens analysed were from the same study that was analysed by microarray, as mentioned above. The bone marrows were from an identical study that was done at a later time point to get more material for flow analyses.
# (§2) Cells isolated from spleens and bone marrows were assessed for phosphorylation of Erk, PLCγ1 and Akt, and expression of PHGDH and SLFN11. The samples were also co-stained with CD33, and biomarker expression was only evaluated in CD33-positive cells.
# pErk = pErk in AML cell panel, short term treatment, flow cytometry; assay type: cell-based, human
# Experimental: (§3) Staining of Cells for Flow Cytometry, General Protocol: • Live cells were centrifuged at 300 G for 5 minutes, washed once with PBS and centrifuged again. Cells were then fixed in 4% PFA in PBS for 10 minutes at 37° C., and resuspended in PBS. Unless processed immediately, samples were at this point stored in PBS at 4° C. (up to three weeks) or at −80° C. (for long-term storage). If intracellular epitopes were stained, cells were permebealized in 90% MeOH for 30 minutes on ice. Unless processed immediately, samples were also be stored in 90% MeOH at −20° C. for up to two months. • Further staining procedure (permebealized or non-permebealized cells): • Cells were washed 1× in PBS and blocked in blocking buffer; either PBS+0.5% BSA or PBS+1:1000 Octagam (5 mg/ml) for 15 minutes at room temperature. Thereafter, cells were incubated with primary AB at the indicated dilutions in incubation buffer (IB, PBS+0.5% BSA) for 1 hour at room temperature. Cells were then washed 3× with IB and incubated with secondary AB (conjugated to a fluorescent flurophore) at 1:1000 dilution in IB for 30 minutes at room temperature. Finally, cells were washed 3× in IB and resuspended in PBS. Cells were analyzed immediately, or stored for up to 24 hours at 4° C. before analysis. • Analysis of cells was done on a BD LSR Fortessa or a BD C6 Accuri flow cytometer, and further processing was done using FlowJo v.7.6. • All incubation steps (but not storage) were done on a spinning wheel or gentle shaker.
# (§4) The diversity of AML cells and their responses was investigated using a panel of AML cell lines and assessing their responses after BGB324-treatment.
# When investigating phospho-markers, the cells were starved overnight in the appropriate growth medium containing 0.1% FBS, pre-treated with BGB324 at 0.5 and 1 μM for one hour, and stimulated with 10% FBS for 20 minutes (to induce phosphorylation, with BGB324 present). Cells were then fixed and stained for flow cytometric analyses.
# [1] = tested on: MOLM13 systemic xenograft; assay: Leukemic (CD33/CD45-positive) cells in MOLM13 systemic xenograft model; assay type: in vivo, mice; settings: 50 mg/kg for 4 days
# Experimental: as §1
# Cells harvested from spleens, blood and bone marrows of the animals were stained with anti CD33 and CD45 antibodies, to determine if systemic disease was established. CD33/CD45-positive cells were found in spleens (around 10-15%), bone marrows (35-40%) and in the blood (2-6%) of the animals, confirming that the disease was established.
# totPLCγ1 = assay: Total PLCγ1 in AML cell panel, long-term treatment, flow cytometry; assay type: cell-based, human
# Experimental: as §3, §4
# Long-term treatment was done in complete medium, without starvation. The responders were treated with 0.05, 0.1 or 0.3 μM BGB324, whereas the non-responders were treated with only a single dose of 2.5 μM BGB324. The cells were fixed after 24, 48 or 72 hours, and the samples were stored in 90% MeOH at −20° C. until all samples were harvested, and stained for flow at the same time.
# Axl(Y779) = assay: pAxl(Y779) in blood of healthy volunteers treated ex vivo; assay type: cell-based, human; settings: blood of two healthy volunteers, 1 μM, 30 minutes ex vivo
# Experimental: (§5) Staining of Blood for Flow Cytometry, General Protocol: • Human blood from healthy donors was collected in the presence of sodium citrate and mixed with 20 volumes of pre-warmed BD phosflow lyse/fix buffer (diluted to 1× in destilled water), followed by incubation in 37° C. water bath for 10 minutes. Cells were spun at 500 g for 8 minutes and washed once with PBS. • Cells were permebilized by adding 70% MeOH followed by 30 min incubation on ice. Unless processed immediately, samples were at this point stored in MeOH at −20° C. for up to 4 weeks. • Staining of permeabilized cells: • Cells were spun at 600 g, washed twice and resuspended in IB. Cells were aliquoted into volums corresponding to 100 ul collected blood (before dilution), and stained as described above (section two in “Staining of cells for flow cytometry, general protocol”). • All washing and incubation steps were done on a spinning wheel or gentle shaker.
# Blood samples from BGB324-treated individuals were not available, so BGB324-treatment was simulated by incubating fresh unfixed blood samples with 1 μM BGB324 for 30 minutes before fixation. Thereafter, samples were fixed, permebealized, and stained for flow with pAxl and pAkt antibodies to examine whether we could see a response to BGB324-treatment in these biomarkers (see FIG. 7). Phosphatase-treated cells were included as a negative staining control. […]
# Kasumi cells = assay: IC50 of BGB324 by resazurin assay, Kasumi; assay type: cell-based; settings: Homo sapiens, Kasumi (non-responder)
# Source text: as §4
# SLFN11 = SLFN11 in CD33-positive cells, MOLM13 systemic xenograft model, flow cytometry; assay type: in vivo, mice; settings: bone marrows, 50 mg/kg for 4 days
# Experimental: as §1, §2
# MOLM13 cells = assay: IC50 of BGB324 by resazurin assay, MOLM13; assay type: cell-based; settings: Homo sapiens, MOLM-13, MOLM13 (responder)
# Source text: as §4
# Akt(S473) = assay: pAkt(S473) in blood of healthy volunteers treated ex vivo; assay type: cell-based, human; settings: blood of two healthy volunteers, 1 μM, 30 minutes ex vivo; signal very low, disregarded as false
# Experimental: as §5
# Blood samples from BGB324-treated individuals were not available, so BGB324-treatment was simulated by incubating fresh unfixed blood samples with 1 μM BGB324 for 30 minutes before fixation. Thereafter, samples were fixed, permebealized, and stained for flow with pAxl and pAkt antibodies to examine whether we could see a response to BGB324-treatment in these biomarkers (see FIG. 7). Phosphatase-treated cells were included as a negative staining control.
compound,measurement,setting,value
"Nc1nc(Nc2ccc3c(c2)CC[C@@H](N2CCCC2)CC3)nn1-c1cc2c(nn1)-c1ccccc1CCC2 [BGB324, 1-(6,7-dihydro-5H-benzo[6,7]cyclohepta[1,2-c]pyridazin-3-yl)-N3-((7-(S)-pyrrolidin-1-yl)-6,7,8,9-tetrahydro-5H-benzo[7]annulene-2-yl)-1H-1,2,4-triazole-3,5-diamine]",PHGDH expression,PHGDH; bone marrows,significant reduction
same,PHGDH expression,PHGDH; spleens,significant reduction
same,pErk,"pErk; Kasumi, 1 hour",no significant differences in pErk
same,phosphorylation of Erk,"pErk; MOLM13, all treatment doses, 1 hour",strong and significant reduction
same,phosphorylation of Erk,"pErk; Mv4-11, all treatment doses, 1 hour",strong and significant reduction
same,pErk,"pErk; OCI-M1, 1 hour",no significant differences in pErk
same,percentage of leukemic cells vs. vehicle-treated mice,[1]; blood,significantly higher percentage of leukemic cells
same,percentage of leukemic cells vs. vehicle-treated mice,[1]; bone marrows,no significant differences
same,percentage of leukemic cells vs. vehicle-treated mice,[1]; spleens,no significant differences
same,PLCγ1 expression,"totPLCγ1; Kasumi, 2.5 μM, 48 and 72 hours",significant increase of PLCγ1 expression
same,total protein expression of PLCγ1,"totPLCγ1; MOLM13, 0.3 μM, 24 hours",slight but significant reduction
same,total protein expression of PLCγ1,"totPLCγ1; Mv4-11, 0.3 μM, 24 and 72 hours",significant reduction
same,PLCγ1 expression,"totPLCγ1; OCI-AML5, 2.5 μM, only 72 hours",significant increase of PLCγ1 expression
same,reduction of pAxl(Y779),Axl(Y779); gated Axl-positive cells,~20%
same,reduction of pAxl,Axl(Y779); whole live cell population,around 20%
same,IC50,Kasumi cells,1.2 µM
same,SLFN11 expression,SLFN11,significant reduction
same,IC50,MOLM13 cells,0.45 µM
same,pAkt,Akt(S473),very slight reduction in pAkt

# Reference: patent US11035008B2, “Biomarkers for cancer” (BERGENBIO ASA, priority 2015, dated 2021)
